From patent publication US12215082B1 (priority 2023, dated 2025)

tested on: multidrug-resistant (MDR) strains of Mycobacterium tuberculosis; experiment: microbe, parasite or virus in culture; type: cell-based; conditions: 192 h, read-out: MIC MDR-TB

Row | Compound | MIC [µg/mL]
1 | O=C(C[n+]1ccc(/C=N/O)cc1)c1ccc(Br)cc1.[Br-] [Compound 3b, (E)-1-(2-(4-Bromophenyl)-2-oxoethyl)-4-((hydroxyimino)methyl)pyridin-1-ium bromide] | 64
2 | O=C(C[n+]1ccc(/C=N/O)cc1)c1ccccc1.[Br-] [Compound 3a, (E)-4-((Hydroxyimino)methyl)-1-(2-oxo-2-phenylethyl)pyridin-1-ium bromide] | 64
3 | N#Cc1ccc(C(=O)C[n+]2ccc(/C=N/O)cc2)cc1.[Br-] [Compound 3d, (E)-1-(2-(4-Cyanophenyl)-2-oxoethyl)-4-((hydroxyimino)methyl)pyridin-1-ium bromide] | 128
4 | O=C(C[n+]1ccc(/C=N/O)cc1)c1ccc(F)cc1.[Br-] [Compound 3c, (E)-1-(2-(4-Fluorophenyl)-2-oxoethyl)-4-((hydroxyimino)methyl)pyridin-1-ium bromide] | 128
5 | O=C(C[n+]1ccc(/C=N/O)cc1)c1ccccc1[N+](=O)[O-].[Br-] [Compound 3e, (E)-4-((Hydroxyimino)methyl)-1-(2-(2-nitrophenyl)-2-oxoethyl)pyridin-1-ium bromide] | 64
